Patent US4525347A, “Antiinflammatory analgesic gelled ointment” (Kowa Company Limited, priority 1983, dated 1985)
Like-named read-outs stand apart in the source and are kept apart here.

How the values were obtained:
[1] = Topical administration of indomethacin: activity and adverse reactions; format: in vivo; conditions: administered topically
[2] = cited from earlier work
[3] = Effect of pH of the ointment on indomethacin (crystallization, decomposition); format: physicochemical
[4] = Skin absorption of indomethacin suspended in conventional ointment bases; format: in vivo, human beings; conditions: topical
[5] = in water and common media; cited from earlier work
[6] = Effect of adjuvant on skin absorption of indomethacin; format: in vivo; conditions: combination with an adjuvant

Structure (SMILES): COc1ccc2c(c1)c(CC(=O)O)c(C)n2C(=O)c1ccc(Cl)cc1 [indomethacin, Indomethacin]
- adverse reactions attributable to the administration of indomethacin [1]: completely eliminated
- antiinflammatory analgesic activity, topical vs internal use [1]: to the same extent as attained by its internal use
- adverse effects ([2]; oral use): gastroenteric disorders
- adverse effects ([2]; suppository form, patient suffering from peptic ulcer): decreased appetite, nausea, vomiting, stomach ache, diarrhea and loose passage
- decomposition of indomethacin ([3]; pH level above 7.5): decomposed indomethacin
- crystallization during the ointment preparation ([3]; pH level below 4.8): crystallization of indomethacin
- absorption by the skin [4]: remain unabsorbed by the skin of human beings
- solubility [5]: only slightly soluble
- absorption of indomethacin by the skin [6]: substantially increased
